According to patent US20220326219A1, “METHODS AND DEVICE FOR THE ANALYSIS OF TISSUE SAMPLES” (PRECOMB THERAPEUTICS AG, priority 2019, published 2022):

Legend:
[1] = tested on: living, perfused microvessels (vasculature) of in vitro vascularized microtumors; conditions: VMT platform, Sobrino et al. 2016; cited from earlier work
[2] = tested on: pancreatic patient-derived xenograft; assay: In vivo efficacy in pancreatic patient-derived xenograft (PDX-mouse model); conditions: average response of 5 individual animals
Protocol: To compare whether the in vitro efficacy analysis is matching in vivo (mouse) efficacy drug response data as obtained, pancreatic patient-derived xenograft (PDX-mouse model) and pancreatic microtumors derived from PDX tumor tissue were generated. Two single drugs (Gemcitabine and Abraxane) and two drug combinations (Gemcitabine:Erlotinib and Gemcitabine:Abraxane) were tested. In vivo data points reflect the average response of 5 individual animals.

[3] = tested on: pancreatic pdx microtumors 12558; assay: Drug efficacy on PDX-derived pancreatic microtumors by tumor growth kinetics over 11 days; assay type: cell-based; conditions: drugs at cmax values in vivo, 11 days monitoring

Compound | effect on vasculature of vascularized microtumors [1] | in vivo (mouse) efficacy drug response [2] | drug efficacy on microtumors (t11/t0 and t11treated/t11control) [3]
N#CC1(c2ccc(NC(=O)c3cccnc3NCc3ccncc3)cc2)CCCC1 [Apatinib] | not effective | – | –
Nc1ccn([C@@H]2O[C@H](CO)[C@@H](O)C2(F)F)c(=O)n1 [Gemcitabine] | – | highest efficacy | highest efficacy
O=C1[O][Pt]2([NH][C@@H]3CCCC[C@H]3[NH]2)[O]C1=O [Oxaliplatin] | – | – | least effective
